Patent US20230233576A1, “ECLITASERTIB FOR USE IN TREATING CONDITIONS INVOLVING SYSTEMIC HYPERINFLAMMATORY RESPONSE” (priority 2020, published 2023)

Tests used:
[1] = system: peripheral cytokine and biomarker levels; assay: Phase 1b severe COVID-19 study: peripheral cytokine and biomarker levels; type: in vivo, human
From the text: The biomarker variables included pro-inflammatory cytokines (such as IL 4, IL-6, IL-10, IL-17, TNFα, and IFNγ) and RIPK1 PD cytokines/chemokines (such as MIP1α and MIP1β) that are elevated in participants with SARS-CoV-2.
The exploratory PD/biomarker endpoint was the change from baseline in peripheral cytokine and biomarker levels up to EOT.
Each analyte was selected, and the assay analytically validated based on reports in the literature and in-house research.

[2] = system: SARS-COV-2 viral load in blood; assay: Phase 1b severe COVID-19 study: quantitative SARS-COV-2 viral load in blood; details: for Viral load in plasma: <1660 CP/ML SARS-COV2, number of participants / Viral load in plasma: <1660 CP/ML SARS-COV2, share of participants (in parentheses) / Viral load in plasma: INCONCLUSIVE, number of participants / Viral load in plasma: INCONCLUSIVE, share of participants (in parentheses) / Viral load in plasma: NO SARS-COV2 DETECTED, number of participants / Viral load in plasma: NO SARS-COV2 DETECTED, share of participants (in parentheses) / Viral load in plasma: POSITIVE RESULT, number of participants / Viral load in plasma: POSITIVE RESULT, share of participants (in parentheses): 600 mg (N = 41); for Viral load in plasma: Positive result, Mean / Viral load in plasma: Positive result, Median: 600 mg, participants with positive result
From the text: The clinical assessment in this study included both the assessment of clinical laboratory variables (CRP, laboratory markers of severe COVID-19 [D-Dimer, hematology parameters and thrombolytic therapy and vasopressor treatment]), oxygenation variables (saturated oxygen [SpO2], SpO2/fraction of inspired oxygen [FiO2] ratio), and clinical status variables (7-point clinical scale). The pharmacodynamic assessment included the measurement of peripheral biomarkers (pro-inflammatory cytokines and RIPK1 PD cytokines/chemokines), and optional measurement of viral load of SARS-CoV-2.
(§1) Exploratory clinical assessments endpoints included: • Change from baseline in ferritin and LDH at Day 7 and EOT • Proportion of participants per category of the 7-point clinical scale at EOT • Time to improvement by 2 points in category of 7-point clinical scale • Quantitative SARS-COV-2 viral load in blood at baseline and on Day 3, 5, 7 and EOT
Summary of quantitative measurement of SARS-COV-2 plasma viral load over time (at baseline, Day 3, 5, 7, and EOT) is provided in Table 28. An overall trend of decrease viral load and increased number of negative SARS-COV-2 tests were observed over time. Due to a high variability in the viral load values, no interpretation could be drawn for the effect of treatment on the viral load.

[3] = system: adult participants hospitalized for severe COVID-19; assay: Phase 1b severe COVID-19 study: 7-point clinical scale; type: in vivo, human; details: 600 mg
From the text: as §1
The 7-point clinical scale is described below: • 1. Death • 2. Hospitalized, on invasive mechanical ventilation or ECMO • 3. Hospitalized, on non-invasive ventilation or high flow oxygen devices • 4. Hospitalized, requiring supplemental oxygen • 5. Hospitalized, not requiring supplemental oxygen—requiring ongoing medical care (COVID-19 related or otherwise) • 6. Hospitalized, not requiring supplemental oxygen—no longer requires ongoing medical care • 7. Not hospitalized

[4] = 600 mg, Day 7, LOCF, Safety population
[5] = 600 mg, Day 7, not statistically significant
[6] = Day 7 vs baseline, LOCF, Safety population
[7] = EOT, Efficacy population (N = 41)

CN1C(=O)[C@@H](NC(=O)c2nnc(Cc3ccccc3)[nH]2)COc2cccnc21 [RIPK1 Inhibitor, (S)-5-benzyl-N-(5-methyl-4-oxo-2,3,4,5-tetrahydropyrido[3,2-b][1,4]oxazepin-3-yl)-4H-1,2,4-triazole-3-carboxamide]
IL-6 fold change from baseline [1, 4]: 0.4
IL-10 fold change from baseline [1, 4]: 0.48
chemokine (C-X-C motif) Ligand 10 fold change from baseline [1, 4]: 0.26
interferon gamma fold change from baseline [1, 4]: 0.44
IL-6, ratio of relatives changes (RIPK1 Inhibitor versus placebo) [1, 5]: 0.63
IL-10, ratio of relatives changes (RIPK1 Inhibitor versus placebo) [1, 5]: 0.82
chemokine (C-X-C Motif) Ligand 10, ratio of relatives changes (RIPK1 Inhibitor versus placebo) [1, 5]: 0.7
monocyte chemotactic protein 1, ratio of fold changes between RIPK1 Inhibitor and placebo [1, 5]: 0.85
Chemokine (C-C Motif) Ligand 13 (pg/mL): RIPK1 Inhibitor 600 mg vs Placebo Fold-Change ([1]; Day 7, LOCF, Safety population): 1.15 (60)
Chemokine (C-X-C Motif) Ligand 10 (pg/mL): RIPK1 Inhibitor 600 mg vs Placebo Fold-Change ([1]; Day 7, LOCF, Safety population): 0.7 (56)
Eotaxin-1 (pg/mL): RIPK1 Inhibitor 600 mg vs Placebo Fold-Change ([1]; Day 7, LOCF, Safety population): 1.03 (65)
Interferon Gamma (pg/mL): RIPK1 Inhibitor 600 mg vs Placebo Fold-Change ([1]; Day 7, LOCF, Safety population): 1.03 (66)
Interleukin 6 (pg/mL): RIPK1 Inhibitor 600 mg vs Placebo Fold-Change ([1]; Day 7, LOCF, Safety population): 0.63 (66)
Interleukin 8 - Cytokines (pg/mL): RIPK1 Inhibitor 600 mg vs Placebo Fold-Change ([1]; Day 7, LOCF, Safety population): 0.8 (66)
Interleukin 10 (pg/mL): RIPK1 Inhibitor 600 mg vs Placebo Fold-Change ([1]; Day 7, LOCF, Safety population): 0.82 (66)
Macrophage Inflammatory Protein 1 Beta (pg/mL): RIPK1 Inhibitor 600 mg vs Placebo Fold-Change ([1]; Day 7, LOCF, Safety population): 0.85 (60)
Macrophage-Derived Chemokine (pg/mL): RIPK1 Inhibitor 600 mg vs Placebo Fold-Change ([1]; Day 7, LOCF, Safety population): 1.2 (60)
Monocyte Chemotactic Protein 1 (pg/mL): RIPK1 Inhibitor 600 mg vs Placebo Fold-Change ([1]; Day 7, LOCF, Safety population): 0.85 (60)
Ratio of Interleukin 6 and Interleukin 10 (RATIO): RIPK1 Inhibitor 600 mg vs Placebo Fold-Change ([1]; Day 7, LOCF, Safety population): 0.86 (66)
Tumor Necrosis Factor alpha (pg/mL): RIPK1 Inhibitor 600 mg vs Placebo Fold-Change ([1]; Day 7, LOCF, Safety population): 0.98 (66)
okine (C-C Motif) Ligand 17: RIPK1 Inhibitor 600 mg vs Placebo Fold-Change ([1]; Day 7, LOCF, Safety population): 1 (60)
Chemokine (C-C Motif) Ligand 13 (pg/mL): RIPK1 Inhibitor 600 mg Fold-Change [1, 6]: 1.31 (41)
Chemokine (C-X-C Motif) Ligand 10 (pg/mL): RIPK1 Inhibitor 600 mg Fold-Change [1, 6]: 0.26 (37)
Eotaxin-1 (pg/mL): RIPK1 Inhibitor 600 mg Fold-Change [1, 6]: 1.21 (45)
Interferon Gamma (pg/mL): RIPK1 Inhibitor 600 mg Fold-Change [1, 6]: 0.44 (47)
Interleukin 6 (pg/mL): RIPK1 Inhibitor 600 mg Fold-Change [1, 6]: 0.4 (47)
Interleukin 8 - Cytokines (pg/mL): RIPK1 Inhibitor 600 mg Fold-Change [1, 6]: 0.71 (47)
Interleukin 10 (pg/mL): RIPK1 Inhibitor 600 mg Fold-Change [1, 6]: 0.48 (47)
Macrophage Inflammatory Protein 1 Beta (pg/mL): RIPK1 Inhibitor 600 mg Fold-Change [1, 6]: 1.07 (41)
Macrophage-Derived Chemokine (pg/mL): RIPK1 Inhibitor 600 mg Fold-Change [1, 6]: 1.05 (41)
Monocyte Chemotactic Protein 1 (pg/mL): RIPK1 Inhibitor 600 mg Fold-Change [1, 6]: 0.69 (41)
Ratio of Interleukin 6 and Interleukin 10 (RATIO): RIPK1 Inhibitor 600 mg Fold-Change [1, 6]: 0.87 (47)
Tumor Necrosis Factor alpha (pg/mL): RIPK1 Inhibitor 600 mg Fold-Change [1, 6]: 0.85 (47)
okine (C-C Motif) Ligand 17: RIPK1 Inhibitor 600 mg Fold-Change [1, 6]: 1.56 (41)
Viral load in plasma: <1660 CP/ML SARS-COV2, number of participants ([2]; DAY 01 (baseline, predose)): 14
Viral load in plasma: <1660 CP/ML SARS-COV2, share of participants (in parentheses) ([2]; DAY 01 (baseline, predose)): (34.1)
Viral load in plasma: INCONCLUSIVE, number of participants ([2]; DAY 01 (baseline, predose)): 1
Viral load in plasma: INCONCLUSIVE, share of participants (in parentheses) ([2]; DAY 01 (baseline, predose)): (2.4)
Viral load in plasma: NO SARS-COV2 DETECTED, number of participants ([2]; DAY 01 (baseline, predose)): 11
Viral load in plasma: NO SARS-COV2 DETECTED, share of participants (in parentheses) ([2]; DAY 01 (baseline, predose)): (26.8)
Viral load in plasma: POSITIVE RESULT, number of participants ([2]; DAY 01 (baseline, predose)): 7
Viral load in plasma: POSITIVE RESULT, share of participants (in parentheses) ([2]; DAY 01 (baseline, predose)): (17.1)
Viral load in plasma: <1660 CP/ML SARS-COV2, number of participants ([2]; DAY 03): 12
Viral load in plasma: <1660 CP/ML SARS-COV2, share of participants (in parentheses) ([2]; DAY 03): (29.3)
Viral load in plasma: INCONCLUSIVE, number of participants ([2]; DAY 03): 2
Viral load in plasma: INCONCLUSIVE, share of participants (in parentheses) ([2]; DAY 03): (4.9)
Viral load in plasma: NO SARS-COV2 DETECTED, number of participants ([2]; DAY 03): 16
Viral load in plasma: NO SARS-COV2 DETECTED, share of participants (in parentheses) ([2]; DAY 03): (39.0)
Viral load in plasma: POSITIVE RESULT, number of participants ([2]; DAY 03): 4
Viral load in plasma: POSITIVE RESULT, share of participants (in parentheses) ([2]; DAY 03): (9.8)
Viral load in plasma: <1660 CP/ML SARS-COV2, number of participants ([2]; DAY 07): 1
Viral load in plasma: <1660 CP/ML SARS-COV2, share of participants (in parentheses) ([2]; DAY 07): (2.4)
Viral load in plasma: INCONCLUSIVE, number of participants ([2]; DAY 07): 2
Viral load in plasma: INCONCLUSIVE, share of participants (in parentheses) ([2]; DAY 07): (4.9)
Viral load in plasma: NO SARS-COV2 DETECTED, number of participants ([2]; DAY 07): 12
Viral load in plasma: NO SARS-COV2 DETECTED, share of participants (in parentheses) ([2]; DAY 07): (29.3)
Viral load in plasma: POSITIVE RESULT, number of participants ([2]; DAY 07): 1
Viral load in plasma: POSITIVE RESULT, share of participants (in parentheses) ([2]; DAY 07): (2.4)
Viral load in plasma: <1660 CP/ML SARS-COV2, number of participants ([2]; EOT): 4
Viral load in plasma: <1660 CP/ML SARS-COV2, share of participants (in parentheses) ([2]; EOT): (9.8)
Viral load in plasma: INCONCLUSIVE, number of participants ([2]; EOT): 1
Viral load in plasma: INCONCLUSIVE, share of participants (in parentheses) ([2]; EOT): (2.4)
Viral load in plasma: NO SARS-COV2 DETECTED, number of participants ([2]; EOT): 28
Viral load in plasma: NO SARS-COV2 DETECTED, share of participants (in parentheses) ([2]; EOT): (68.3)
Viral load in plasma: POSITIVE RESULT, number of participants ([2]; EOT): 0
Viral load in plasma: Positive result, Mean ([2]; DAY 01 (baseline, predose)): 30217.6 copies/mL
Viral load in plasma: Positive result, Median ([2]; DAY 01 (baseline, predose)): 7560.0 copies/mL
Viral load in plasma: Positive result, Mean ([2]; DAY 03): 7505.0 copies/mL
Viral load in plasma: Positive result, Median ([2]; DAY 03): 6332.5 copies/mL
Viral load in plasma: Positive result, Mean ([2]; DAY 07): 6240.0 copies/mL
Viral load in plasma: Positive result, Median ([2]; DAY 07): 6240.0 copies/mL
7-point clinical scale category 3, participants [3, 7]: 0 n
7-point clinical scale category 5, participants [3, 7]: 0 n
7-point clinical scale category 6, participants [3, 7]: 0 n
median time to improvement by at least 2 points in the category of 7-point scale ([3]; Kaplan-Meier, Efficacy population): 8 days
participants with a 7-point clinical scale score of 5 or lower ([3]; end of study treatment period or early discontinuation): 15%
